Laboratory results from paper PMC10002828, “FRET assay for live-cell high-throughput screening of the cardiac SERCA pump yields multiple classes of small-molecule allosteric modulators” (Research Square, 2023).
Structures can show the parent of a compound that is named as a salt. Where two headings read alike, the source gives them in different places.

What was measured:
[1] = target: T1, human two-color SERCA2a (2CS) biosensor (Homo sapiens, UniProt P16615); test: FLT/FRET concentration-response of two-color SERCA2a (2CS) biosensor in live HEK293 cells; assay type: cell-based
T1 construct: expressed in transfected cells
Description: FRET CRC assay plates (0.78–100 μM compound range) with at least ten different compound concentrations were made by adding the appropriate volume of compound or DMSO into black 384 well plates (Greiner Bio-One) using a Mosquito HV (SPTLabTech, United Kingdom). Subsequent ATPase and Ca^2+-transport CRC assay plates (0–50 μM compound range) with repurchased compounds were made in a similar manner using with the Echo 550 (Beckman Coulter) using either 384 well transparent plates (Greiner Bio-One) or black-walled plates with transparent bottoms (Greiner Bio-One), respectively.
On each day of screening, cells were harvested, washed three times with PBS, and centrifuged at 300g for 5min. Cells were filtered using a 70μm cell strainer and diluted to 1–2 × 10^6 cells/mL. Cell concentration and viability were assessed using the Cell countess (Invitrogen) and trypan blue assay. During assays, cells were constantly and gently stirred using a magnetic stir bar at room temperature, keeping the cells in suspension and evenly distributed to avoid clumping. Cells were dispensed at 5μL or 50μL per well into assay plates (dispensed into 40 assay plates, each containing 1536 wells) pre-plated with either compound or DMSO using a Multdrop Combi liquid dispenser (Thermo Fisher Scientific, Pittsburg, PA) and sealed until needed. […] The FRET HTS screen was performed over two days with a custom HTS fluorescence lifetime plate reader (FLT-PR) and spectral plate reader (SUPR) provided by Photonic Pharma LLC (Minneapolis, MN)[18]. […]
A detailed description of the high-throughput fluorescence lifetime plate reader (FLT-PR) and spectral unmixing plate reader (SUPR), manufactured by Fluorescence Innovations Inc and provided by Photonic Pharma, LLC was described previously[18],[21]. Briefly, for lifetime measurement with the FLT-PR, the observed donor-fluorescence waveform, F (t) was fit by a convolution of the measured instrument response function (IRF) and a single-exponential decay to obtain the lifetime (τ) of the donor fluorophore[57] in the absence (τD) and presence (τDA) of the acceptor as described in Eq. (1): 1 F(t)=Ae^(−t/τ) FRET efficiency (E) was determined as the fractional decrease of donor FLT in the absence and in the presence of acceptor as in Eq. (2): 2 E=1−τDA/τD E was determined in the presence and absence of compound and normalized relative to E of the DMSO control. For spectral detection with the SUPR, the observed fluorescence emission spectrum F(λ) was fit by least-squares minimization of a linear combination of component spectra for donor (D), acceptor (A), cellular autofluorescence (C) and water Raman (W) as described previously. […]

[2] = target: T2, SERCA2a (Sus scrofa, UniProt P11607); test: NADH-linked enzyme-coupled Ca2+-ATPase assay in pig cardiac SR vesicles; assay type: biochemical; conditions: for functional category (Ca2+-ATPase and Ca2+-transport, VMAX and VMID): based on both Ca2+-ATPase and Ca2+-transport assays; for Ca2+-ATPase increase at VMID (ΔVMID): midpoint Ca2+; for Ca2+-ATPase increase at VMAX (ΔVMAX): saturating Ca2+
T2 construct: SERCA2a in native SR preparations; from tissue; host or cells: porcine left ventricular tissue (cardiac SR vesicles)
Description: (§1) Cardiac SR vesicles were isolated from fresh porcine left ventricular tissue using differential centrifugation of the homogenized tissue as previously described. The SR vesicles were flash-frozen and stored at −80°C until needed.
Functional assays were performed using porcine cardiac SR vesicles. An enzyme-coupled, NADH-linked ATPase assay was used to measure SERCA ATPase activity in 384-well microplates. Each well contained 50 mM MOPS (pH 7.0), 100 mM KCl, 1 mM EGTA, 0.2 mM NADH, 1 mM phosphoenol pyruvate, 10 IU/mL of pyruvate kinase, 10 IU/mL of lactate dehydrogenase, 7 μM of the calcium ionophore A23187 (Sigma), and CaCl2 was added to set free [Ca^2+] to three different concentrations. The Ca^2+-ATPase were measured at VMAX (saturating, pCa 5.4), VM!D (subsaturating, midpoint, pCa 6.2), and basal (non-activating, pCa 8.0) [Ca^2+]. 10 μg/mL of SR vesicle, calcium, compound (0.048 to 50 μM), and assay mix were incubated for 20 min at room temperature before measurement of functional assays with each of the 18 hit compounds, because a shorter incubation time than the FRET live-cell assays achieved optimal responses. The assay was started upon the addition of MgATP at a final concentration of 5 mM (total volume to 80 μL), and absorbance was read in a SpectraMax Plus microplate spectrophotometer from Molecular Devices (Sunnyvale, CA) at 340nm.
(§2) SERCA2a ATPase (or Ca-transport) activity at pCa 8.0 was subtracted from pCa 5.4 and pCa 6.2 values. The % effect ATPase (or Ca-transport transport) activity was normalized to the DMSO only (or 2CS in the absence of compound), and then were plotted against [Ca], and the curves were fitted using the Hill function, where V is the initial ATPase rate (or fluorescence rate), VMAX is the ATPase (or Ca^2+-transport) at saturating [Ca^2+], and EC50 or pKCa, or VM!D is the apparent Ca^2+ dissociation constant as described previously ATPase (or Ca^2+-transport) at (Midpoint Ca^2+)[44].

[3] = target: T2, SERCA2a; test: Fluo-4 oxalate-supported Ca2+-transport assay in pig cardiac SR vesicles; assay type: biochemical; conditions: for coupling ratio (CR), VMAX (Ca2+-transport) / VMAX (Ca2+-ATPase): at VMAX, control 0.66; for Ca2+-transport increase at VMID (Δ): midpoint Ca2+; for Ca2+-transport increase at VMID (Δ) / C10, Ca2+-transport at VMID: pCa 6.2; for Ca2+-transport change at VMAX (Δ, increase positive): saturating Ca2+
Description: as §1
Ca^2+-transport assays were performed with similar porcine SR samples as in the Ca^2+-ATPase assays described above. The compound effect on the Ca^2+-transport activity of SERCA2a was determined using an oxalate-supported assay in which the change in fluorescence in a Ca-sensitive dye, Fluor-4, was determined as previously described. A buffered solution containing 50 mM MOPS (pH 7.0), 100 mM KCl, 30 mg/mL sucrose, 1 mM EGTA, 10 mM potassium oxalate, 2 μM Fluo-4, 30 μg/mL porcine cardiac SR vesicles, CaCl2 calculated to reach the free [Ca^2+] (pCa 8.0, 6.2, and 5.4), and compound (0.048 to 50μM) was dispensed into 384-well black walled, transparent bottomed plates (Greiner Bio-One) containing the tested small molecule and incubated at 22°C for 20 minutes while covered and protected from light. To start the reaction, MgATP was added to a final concentration of 5 mM, and the decrease in 485-nm excited fluorescence of Fluo-4 was monitored at 520 nm for 15 min using a FLIPR Tetra (Molecular Devices, San Jose, CA).
as §2

[4] = test system: SERCA; conditions: cited from earlier work
[5] = parameters: method as in PMID 21878191; conditions: human usage; cited from earlier work
[6] = test system: SERCA; parameters: method as in PMID 32397211; conditions: assay not named; read-out: EC50 (affinity); cited from earlier work
[7] = 2CS biosensor, live HEK293 cells, CRC 0.78–100 μM compound, read-out: FRET EC50

T1 sequence (P16615 1-997 isoform P16615-2): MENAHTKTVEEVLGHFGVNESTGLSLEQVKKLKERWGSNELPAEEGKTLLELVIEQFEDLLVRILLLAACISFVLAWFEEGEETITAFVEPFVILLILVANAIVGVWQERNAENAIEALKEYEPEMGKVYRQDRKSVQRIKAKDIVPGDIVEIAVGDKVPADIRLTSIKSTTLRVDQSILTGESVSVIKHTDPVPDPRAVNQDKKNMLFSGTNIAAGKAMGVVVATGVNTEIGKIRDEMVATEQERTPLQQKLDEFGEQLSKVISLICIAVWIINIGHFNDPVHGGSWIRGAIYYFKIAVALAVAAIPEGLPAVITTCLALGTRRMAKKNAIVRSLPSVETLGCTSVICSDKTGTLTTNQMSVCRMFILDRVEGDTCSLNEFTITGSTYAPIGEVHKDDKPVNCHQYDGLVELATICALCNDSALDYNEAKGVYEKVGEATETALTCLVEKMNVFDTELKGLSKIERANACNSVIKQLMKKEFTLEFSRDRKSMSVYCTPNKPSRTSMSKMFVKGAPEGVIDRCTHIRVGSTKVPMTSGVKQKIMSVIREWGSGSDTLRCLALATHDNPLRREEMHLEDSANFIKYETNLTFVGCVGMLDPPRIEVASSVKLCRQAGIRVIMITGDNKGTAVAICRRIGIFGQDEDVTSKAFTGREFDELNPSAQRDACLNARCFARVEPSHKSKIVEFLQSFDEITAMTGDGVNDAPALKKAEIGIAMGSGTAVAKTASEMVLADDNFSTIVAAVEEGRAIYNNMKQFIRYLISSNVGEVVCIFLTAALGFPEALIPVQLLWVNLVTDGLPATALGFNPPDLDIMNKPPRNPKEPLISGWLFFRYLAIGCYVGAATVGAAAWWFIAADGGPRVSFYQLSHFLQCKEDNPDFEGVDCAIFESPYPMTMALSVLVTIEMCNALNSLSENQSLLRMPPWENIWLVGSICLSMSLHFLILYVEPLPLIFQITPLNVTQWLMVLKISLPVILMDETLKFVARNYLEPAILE
T2 sequence (P11607 1-997 isoform P11607-2): as the sequence (P16615 1-997 isoform P16615-2) above, with R371K, N403K, S538P, L570M, H576N, D667E, A713S, S865T, I889V, V963L counted along it

## OCC1(Cc2ccccc2F)CCCN(Cc2cc3c(cc2Cl)OCO3)C1 (stereo not drawn) [Compound 12]
[1]; assay not given, probably FRET EC50 of Table 1, read-out: EC50 (affinity), compared with thapsigargin
  EC50: 3.8 µM
[2]; pCa 5.4
  Ca2+-ATPase inhibition at VMAX: 93%
[2]; pCa 6.2
  Ca2+-ATPase inhibition at VMID: 90%
[3]
  Ca2+-transport inhibition: completely inhibited

## C[C@]12CCC(=NOCCN)C[C@@H]1C(=O)C[C@@H]1[C@@H]2CC[C@]2(C)C(=O)CC[C@@H]12 [istaroxime, (E,Z)-3-((2-aminoethoxy)imino) androstane-6,17-dione hydrochloride)]
[4]
  effect on SERCA: stimulates SERCA activity
[5]
  clearance rate: high clearance rate
  gastrointestinal absorption: poor gastrointestinal absorption
  metabolic transformation: extensive metabolic transformation

## C/C=C(/C)C(=O)O[C@H]1C(C)=C2[C@H]([C@@H]1OC(=O)CCCCCCC)[C@@](C)(OC(C)=O)C[C@H](OC(=O)CCC)[C@@]1(O)[C@H]2OC(=O)[C@@]1(C)O [thapsigargin]
[6]
  EC50: ~0.0075 µM

## CCCCN(CC)c1nc(C)nc2c1c(C)cn2-c1c(C)cc(C)cc1C [CP-154526]
[4]
  effect on SERCA: increases the apparent Ca^2+ affinity of SERC2a

## CCn1nc(C)c(CN2CCCC(Nc3ccc(C(C)C)cc3)C2)c1C (stereo not drawn) [Compound 7]
[1]; [7]
  EC50: 0.3 µM
[2]
  functional category (Ca2+-ATPase and Ca2+-transport, VMAX and VMID): activates both Ca^2+-ATPase and Ca^2+-transport
[2]; pCa 6.2
  Ca2+-ATPase increase at VMID (ΔVMID): 7%
  C10, Ca2+-ATPase at VMID: 25 µM
[2]; pCa 5.4
  C10 (compound concentration that changes function by 10%), Ca2+-ATPase at VMAX: 25 µM
  Ca2+-ATPase increase at VMAX (ΔVMAX): 14%
[3]
  coupling ratio (CR), VMAX (Ca2+-transport) / VMAX (Ca2+-ATPase): 0.74
  Ca2+-transport increase at VMID (Δ): 19%
  C10, Ca2+-transport at VMID: 21 µM
[3]; pCa 5.4
  C10, Ca2+-transport at VMAX: 14 µM
  Ca2+-transport change at VMAX (Δ, increase positive): 24%

## COc1ccc(C(=O)C2CCCN(Cc3nc(-c4ccc(F)cc4)cs3)C2)c(OC)c1 (stereo not drawn) [Compound 8]
[1]; [7]
  EC50: 4.9 µM
[2]
  functional category (Ca2+-ATPase and Ca2+-transport, VMAX and VMID): activates both Ca^2+-ATPase and Ca^2+-transport
[2]; pCa 6.2
  Ca2+-ATPase increase at VMID (ΔVMID): 31%
  C10, Ca2+-ATPase at VMID: 7.8 µM
[2]; pCa 5.4
  C10, Ca2+-ATPase at VMAX: 4.3 µM
  Ca2+-ATPase increase at VMAX (ΔVMAX): 49%
[3]
  coupling ratio (CR), VMAX (Ca2+-transport) / VMAX (Ca2+-ATPase): 0.4
  Ca2+-transport increase at VMID (Δ): 7%
[3]; pCa 5.4
  C10, Ca2+-transport at VMAX: 25 µM
  Ca2+-transport change at VMAX (Δ, increase positive): 10%

## Cc1ccc2cccc(NC(=O)c3ccc(OC(C)C)cc3)c2n1 [CDN1163]
[4]
  effect on SERCA: stimulates Ca^2+ transport

## O=C(c1ccc(-c2ccc(O)cc2)nc1)N1CCC(CCc2ccccc2)CC1 [Compound 6]
[1]; 2CS biosensor, normalized FRET E, read-out: FRET half maximal effect (EC50), Figure 6 legend
  EC50: 7.1 ± 0.2 µM
[2]
  functional category (Ca2+-ATPase and Ca2+-transport, VMAX and VMID): activates Ca^2+-ATPase with divergent effects on Ca^2+-transport
[2]; pCa 6.2
  Ca2+-ATPase increase at VMID (ΔVMID): 30%
  C10, Ca2+-ATPase at VMID: 8.7 µM
[2]; pCa 5.4
  C10 (compound concentration that changes function by 10%), Ca2+-ATPase at VMAX: 9.7 µM
[2]; pCa 5.4, read-out: EC50, Ca2+-ATPase at VMAX
  EC50: 11 µM
[2]; pCa 6.2, read-out: EC50, Ca2+-ATPase at VMID
  EC50: 11 µM
[3]
  coupling ratio (CR), VMAX (Ca2+-transport) / VMAX (Ca2+-ATPase): 0.48
  Ca2+-transport increase at VMID (Δ): 17%
  C10, Ca2+-transport at VMID: 4 µM
[3]; pCa 5.4
  C10, Ca2+-transport at VMAX: 15 µM
  Ca2+-transport inhibition at VMAX: 21%

## O=C(c1cc(O)c(O)c([N+](=O)[O-])c1)c1ccccc1F [Ro 41–0960]
[4]
  effect on SERCA: increases SERCA maximal activity in high Ca^2+
